Source: paper PMC8621605, “Cascade Transformations of 1-R-Ethynyl-9,10-anthraquinones with Amidines: Expanding Access to Isoaporphinoid Alkaloids” (Molecules, 2021)
Where “and” joins values, the source holds several entries; their conditions need not be identical. Identical values can stand only once. Like-named read-outs stand apart in the source and are kept apart here.

Tests used:
[1] = system: Histamine-Induced Inflammation; test: Histamine-induced mouse paw edema model; assay type: in vivo, outbred albino male mice; conditions: for inhibition in vivo at 20 mg/kg: Mus musculus, ip, anti-inflammatory activity relative to control group, read-out: Histamine-Induced Inflammation AIA, %; for inhibition in vivo at 20 mg/kg / anti-inflammatory effect (in words): 20 mg/kg i.p.; for Histamine-Induced Inflammation IEI, %: inflammatory edema index, 20 mg/kg i.p. 1 h before histamine, mean ± SEM
From the text: (§1) The anti-inflammatory activity of the synthesized compounds was investigated in vivo in comparison with indomethacin on two models of local inflammation induced by histamine or concanavalin A injection. The last one was used as the inductor of allergic-like inflammation, owing to its immunogenic activity. The results were expressed as values of inflammatory edema indexes (IEI) and percentages of anti-inflammatory activity (AIA) relative to the control group (Table 1).
(§2) The pharmacological studies were carried out on outbred albino male mice and C57BL/6 female mice weighing 20–25 g with eight animals in each group. The anti-inflammatory activity of compounds 2–3 was evaluated in the histamine-induced and concanavalin A-induced mouse paw edema models. The test compounds were dissolved in saline containing 0.5% Tween 80 just before intraperitoneal administration at the dose of 20 mg/kg. The reference agent indomethacin (‘Fluka BioChemica’) was administered by the same method and dose. The control group of animals received an equivalent volume of water–Tween mixture.
The 8 outbred male albino mice were subplantar injected into the hind paw with 0.05 mL 0.01% histamine (“Sigma Aldrich”, Saint Louis, MO, USA) in water solution. The tested compounds were administered 1 h before the histamine injection. The animals were sacrificed by cervical dislocation 5 h after the phlogogen injection.
(§3) Both hind paws were cut off at the ankle joint and weighed. The ratio of the difference in weight between the treated and untreated hind paws to the weight of the untreated hind paw was used as an inflammatory edema index (IEI). The relative percentage of IEI versus control IEI (100%) was calculated for each test group. The anti-inflammatory activity (AIA) was presented as a difference between 100% in the control group and relative percentage of IEI in the test group.

[2] = system: Concanavalin A-Induced Inflammation; test: Concanavalin A-induced mouse paw edema model; assay type: in vivo, C57BL/6 female mice; conditions: for inhibition in vivo at 20 mg/kg: Mus musculus, ip, anti-inflammatory activity relative to control group, read-out: Concanavalin A-Induced Inflammation AIA, %; for inhibition in vivo at 20 mg/kg / Concanavalin A-Induced Inflammation IEI, %: 20 mg/kg i.p. twice; for Concanavalin A-Induced Inflammation IEI, %: inflammatory edema index, 24 h and 1 h before phlogogen, mean ± SEM; for activity higher than that of indomethacin (reference drug): 20 mg/kg double i.p. administration; for anti-inflammatory effect (in words): 20 mg/kg i.p.
From the text: as §1, §2
The 8 female mice C57Bl/6 were subplantar injected into the hind paw with 0.02 mL 0.5% concanavaline A (“Sigma Aldrich”) aqueous solution. The test compounds were administered twice 24 h and 1 h before phlogogen. The animals were sacrificed by cervical dislocation 1 h after the phlogogen injection.
as §3

hTERT = test: MTT cytotoxicity assay, immortalized fibroblasts; assay type: cell-based, human; conditions: for IC50: Homo sapiens, Fibroblast, 72 h, read-out: IC50 ± SEM, hTERT
Procedure: (§4) The cytotoxicity study of the quinolinones 2–3 was evaluated in vitro by MTT assay on immortalized humane fibroblasts (hTERT), humane breast cancer cell line (MCF7) and humane glioblastoma cell line (U-87MG and) versus doxorubicin as a reference compound.
(§5) Cell lines were obtained from the American Type Culture Collection: U-87 MG (ATCC number HBT-14), MCF7 (ATCC number HTB-22), A549 (ATCC number CRM-CCL), HeLa (ATCC number CCL-2). Immortalized human fibroblasts hTERT (as noncancerous control) were obtained from ICG SB RAS (Novosibirsk, Russia). DMEM with 10% fetal bovine serum (Gibco, Amarillo, TX, USA) was used for culturing. Optical density was measured on a Multiskan RC spectrophotometer (LabSystems, Vantaa, Finland). The MTT test was carried out according to the standard procedure using the reagent 3-(4,5-dimethylthiazol-2-yl)-2,5-diphen-yltetrazolium bromide (MTT, Sigma). Cells were seeded in 96 well plates at 5000 cells/well and incubated for 24 h at 37 C in 5% CO2. After 24 h, various concentrations of test compounds ([…]) in DMSO were added and the cells were incubated for an additional 72 h. The viability for DMSO (negative control) was calculated as 100%. All culture experiments were carried out independently three times with two repeats in the experiment, and the final result is presented as concentration, which causes 50% inhibition of cell population growth (IC50 ± SEM).

U-87 MG = test: MTT cytotoxicity assay, glioblastoma; assay type: cell-based, human; conditions: for IC50: Homo sapiens, U-87 MG, 72 h, read-out: IC50 ± SEM, U-87 MG
Procedure: as §4, §5

A549 = test: MTT cytotoxicity assay, A549; assay type: cell-based; conditions: Homo sapiens, 72 h, read-out: IC50 ± SEM, A549
Procedure: as §5

MCF7 = test: MTT cytotoxicity assay, breast cancer; assay type: cell-based, human; conditions: for IC50: Homo sapiens, MCF7, 72 h, read-out: IC50 ± SEM, MCF7
Procedure: as §4, §5

HeLa = test: MTT cytotoxicity assay, cervical cancer; assay type: cell-based; conditions: for cytotoxicity lower than doxorubicin: ratio of IC50; for IC50: 72 h, MTT, read-out: IC50 ± SEM, HeLa
Procedure: as §5

| Compound | inhibition in vivo at 20 mg/kg [1] [%] | Histamine-Induced Inflammation IEI, % [1] [%] | inhibition in vivo at 20 mg/kg [2] [%] | Concanavalin A-Induced Inflammation IEI, % [2] [%] | cytotoxic effect on immortal fibroblasts (in words) (hTERT) | IC50 (hTERT) [µM] | antitumor effect on multiform glioblastoma cell culture (in words) (U-87 MG) | IC50 (U-87 MG) [µM] | IC50 (A549) [µM] | antitumor effect on breast cancer cell culture (in words) (MCF7) | IC50 (MCF7) [µM] | cytotoxicity lower than doxorubicin (HeLa; HeLa) [times] | IC50 (HeLa; Homo sapiens, HeLa) [µM] | IC50 (HeLa) [µM] | activity higher than that of indomethacin (reference drug) [2] | melting point [°C] | anti-inflammatory effect (in words) [1] | anti-inflammatory effect (in words) [2] |
| --- | --- | --- | --- | --- | --- | --- | --- | --- | --- | --- | --- | --- | --- | --- | --- | --- | --- | --- |
| CC(C)(O)c1cc2cccc3c2c(n1)-c1ccccc1C3=O [3j] | 16 | 28.9 ± 2.0 | 41 | 22.1 ± 2.5 | did not have a cytotoxic effect | > 100 | weak antitumor effect | 50.1 ± 5.9 | > 100 | weak antitumor effect | 92.9 ± 7.2 | 3.5 | 21.3 ± 5.9 |  |  |  |  |  |
| Cc1c(-c2cc3cccc4c3c(n2)-c2ccccc2C4=O)cnn1C [3k] | 34 | 22.7 ± 1.7 | 18 | 31.1 ± 2.4 | did not have a cytotoxic effect | > 100 |  | > 100 | > 100 |  | > 100 | 3.5 | 21.3 | 22.7 ± 7.3 |  |  |  |  |
| CCCCCc1cc2cccc3c2c(n1)-c1ccccc1C3=O [3h] | 30 | 23.9 ± 1.7 | 48 | 19.7 ± 2.3 |  | > 100 |  | > 100 | > 100 |  | > 100 |  | > 100 |  | 1.3–1.4 times |  |  |  |
| COc1ccc(C(=O)c2c(C)nc3c4c(cccc24)C(=O)c2ccccc2-3)cc1 [4d, 2-methyl-3-(p-methoxybenzoyl)-7H-dibenzo[de,h]quinolin-7-one] |  |  |  |  |  |  |  |  |  |  |  |  |  |  |  | 232.5 to 233.5 |  |  |
| CC(=O)c1ccc(-c2cc3cccc4c3c(n2)-c2ccccc2C4=O)cc1 [3b, 2-(p-acetylphenyl)-7H-dibenzo[de,h]quinolin-7one] | 36 | 22.1 ± 1.8 | 52 | 18.0 ± 2.0 |  | > 100 |  | > 100 | > 100 |  | > 100 |  | > 100 |  |  | 324 to 325 | most potent effects | most potent effects |
| CC(=O)c1ccc(C(=O)c2c(-c3ccccc3)nc3c4c(cccc24)C(=O)c2ccccc2-3)cc1 [2b, 2-benzo-3-(p-acetylbenzoyl)-7H-dibenzo[de,h]quinolin-7-one] | 33 | 23.0 ± 1.9 | 43 | 21.4 ± 1.6 |  | > 100 |  | > 100 | > 100 |  | > 100 |  | > 100 |  |  | 312 to 313 | most potent effects | most potent effects |
| COc1ccc(-c2cc3cccc4c3c(n2)-c2ccccc2C4=O)cc1 [3d, 2-(p-methoxyphenyl)-7H-dibenzo[de,h]quinolin-7-one] | 42 | 19.9 ± 2.6 | 60 | 15.2 ± 1.6 |  | > 100 |  | > 100 | > 100 |  | > 100 |  | > 100 |  | 1.5 times and 1.3–1.4 times | 203 to 204 |  |  |
| O=C1c2ccccc2-c2nc(-c3ccc([N+](=O)[O-])cc3)cc3cccc1c23 [3c, 2-(p-nitrophenyl)-7H-dibenzo[de,h]quinolin-7-one] |  |  |  |  |  |  |  |  |  |  |  |  |  |  |  | 295 to 296 |  |  |
| COc1ccc2c(c1)c(CC(=O)O)c(C)n2C(=O)c1ccc(Cl)cc1 [Indomethacin, indomethacin, reference compound] | 48 | 17.8 ± 2.7 | 38 | 23.4 ± 2.2 |  |  |  |  |  |  |  |  |  |  |  |  |  |  |
| COc1ccc(C(=O)c2c(-c3ccccc3)nc3c4c(cccc24)C(=O)c2ccccc2-3)cc1 [2d, 2-benzo-3-(p-methoxybenzoyl)-7H-dibenzo[de,h]quinolin-7-one] | 34 | 22.7 ± 2.3 | 26 | 27.9 ± 1.2 |  | > 100 |  | > 100 | > 100 |  | > 100 |  | > 100 |  |  | 279 to 280 | most potent effects | most potent effects |
| COc1cccc2c1C(=O)c1c(O)c3c(c(O)c1C2=O)C[C@@](O)(C(=O)CO)C[C@@H]3O[C@H]1C[C@H](N)[C@H](O)[C@H](C)O1 [Doxorubicin, doxorubicin, reference compound] |  |  |  |  |  | 4.1 ± 1 |  | 2.3 ± 0.6 | 4.05 ± 0.9 |  | 3.6 ± 0.4 |  | 6 ± 1 |  |  |  |  |  |
| O=C1c2ccccc2-c2nc(-c3ccccc3)cc3cccc1c23 [3a, 2-phenyl-7H-dibenzo[de,h]quinolin-7-one] | 60 | 13.9 ± 0.8 | 53 | 17.8 ± 1.8 | did not have a cytotoxic effect | > 100 |  | > 100 | > 100 |  | > 100 | 14 | 86.3 ± 12.9 |  | 1.3–1.4 times | 207 to 208 | most potent effect |  |
| CN(C)c1ccc(-c2cc3cccc4c3c(n2)-c2ccccc2C4=O)cc1 [3i] | 34 | 22.6 ± 2.3 | 51 | 18.5 ± 1.6 |  | > 100 |  | > 100 | > 100 |  | > 100 |  | > 100 |  | 1.3–1.4 times |  | most potent effects | most potent effects |
